Patent US20150224058A1, “FORMULATIONS OF FLIBANSERIN” (Sprout Pharmaceuticals Inc., priority 2008, published 2015)
≈ marks a conversion by molar mass, not a printed value.

Assay: Solubility of flibanserin in aqueous media
Type: physicochemical
Conditions: aqueous buffer; in phosphate buffer at pH 5.0
Source text: This marginal solubility at higher pH-values of flibanserin makes it difficult to develop extended release dosage forms or in some case even immediate release dosage forms for the following reasons. There is a natural pH gradient from the acidity of the stomach where the pH of physiological fluids are typically around 1-2, through the weakly acidic duodenum to the virtually neutral environment of the small intestine where the pH is in the range of 5-8. There are however cases of non-acidic stomach conditions due to either low production of hydrochloric acid caused by the physiology of the patients (this percentage increases form about 2-10% in young patients to about 10 to 40% in elderly patients) or by coadministration of antacids such as basic agents, H2-blockers or proton pump inhibitors. In those cases dissolution of even immediate release formulations (IRE) may be incomplete in the stomach and absorption might be incomplete or at least delayed.
Within the meaning of the present invention, supersaturation occurs if the active ingredient remains in dissolved status at concentrations far above its saturation solubility in the same aqueous system. […]

solubility: 10 µg/mL (≈ 25.6 µM)
Structure (SMILES): O=c1[nH]c2ccccc2n1CCN1CCN(c2cccc(C(F)(F)F)c2)CC1 [Flibanserin, 1,3-dihydro-1-[2-[4-[3-(trifluoromethyl)phenyl]-1-piperazinyl]ethyl]-2H-benzimidazole-2-one]
